The term inhibition denotes the drop in the measured response relative to a control, in per cent.

In experiment [1] the target is Cholinesterase (Equus caballus) (UniProt P81908). The note with it: at 2 mg/mL.
Description: Inhibition of horse BChE at 2 mg/ml by Ellman's method
For experiment [2], the target named is Acetylcholinesterase (Electrophorus electricus) (UniProt O42275). To be noted: at 2 mg/mL.
Acetylcholinesterase (Electrophorus electricus), sequence (O42275 24-633 limits assumed): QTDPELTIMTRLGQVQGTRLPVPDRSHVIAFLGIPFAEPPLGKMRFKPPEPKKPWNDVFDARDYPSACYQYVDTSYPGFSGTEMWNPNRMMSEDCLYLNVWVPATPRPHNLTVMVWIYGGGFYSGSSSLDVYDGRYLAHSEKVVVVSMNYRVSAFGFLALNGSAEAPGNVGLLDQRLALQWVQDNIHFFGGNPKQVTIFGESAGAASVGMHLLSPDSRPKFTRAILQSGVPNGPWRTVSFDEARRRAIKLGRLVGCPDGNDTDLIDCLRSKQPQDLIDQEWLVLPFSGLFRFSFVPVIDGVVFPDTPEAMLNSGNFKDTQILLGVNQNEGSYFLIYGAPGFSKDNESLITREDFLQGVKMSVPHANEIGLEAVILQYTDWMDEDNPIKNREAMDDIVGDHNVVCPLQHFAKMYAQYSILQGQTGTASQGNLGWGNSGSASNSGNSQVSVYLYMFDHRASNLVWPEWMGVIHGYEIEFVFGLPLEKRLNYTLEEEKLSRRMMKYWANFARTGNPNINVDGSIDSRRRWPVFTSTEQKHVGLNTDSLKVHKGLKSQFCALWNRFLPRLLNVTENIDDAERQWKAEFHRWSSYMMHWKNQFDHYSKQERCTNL
Description: Inhibition of electric eel AChE at 2 mg/ml by Ellman's method

Cholinesterase (Equus caballus), sequence (P81908 whole entry): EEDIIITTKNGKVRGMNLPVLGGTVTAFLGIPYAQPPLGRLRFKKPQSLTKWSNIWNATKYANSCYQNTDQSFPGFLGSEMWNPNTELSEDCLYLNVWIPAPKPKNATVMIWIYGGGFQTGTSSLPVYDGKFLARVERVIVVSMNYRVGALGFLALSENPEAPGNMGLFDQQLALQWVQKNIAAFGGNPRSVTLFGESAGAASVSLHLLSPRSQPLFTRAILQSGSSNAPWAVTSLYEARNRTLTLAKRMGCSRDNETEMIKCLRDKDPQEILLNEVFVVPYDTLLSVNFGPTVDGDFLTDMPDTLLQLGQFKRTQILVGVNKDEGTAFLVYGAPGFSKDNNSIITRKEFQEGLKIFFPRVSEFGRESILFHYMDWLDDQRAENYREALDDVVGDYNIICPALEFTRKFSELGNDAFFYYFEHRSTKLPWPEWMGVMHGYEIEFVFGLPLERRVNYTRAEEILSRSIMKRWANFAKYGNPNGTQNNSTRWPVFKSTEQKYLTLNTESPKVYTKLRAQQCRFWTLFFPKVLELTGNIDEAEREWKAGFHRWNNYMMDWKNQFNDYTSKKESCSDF

In the case of `COc1cc2oc(=O)ccc2cc1O`, the inhibition in experiment [1] worked out at 3.87%; in experiment [2], 28.1%.

Consider `C[C@@H]1CC[C@H]2[C@](C)(CO)[C@@H](O)CC[C@]2(C)[C@@]12CC[C@@](CO)(CCO)O2`, for which the inhibition in experiment [1] is 6.75%; in experiment [2] it was -4.53%.

For the molecule `CN1[C@H]2CC(=O)C[C@@H]1C(O)C2` (some centres not stated), the inhibition in experiment [1] was -3.92%; in experiment [2] it was -7.3%.

As for `CCCCCCCCCCCCCC(=O)O[C@@H]1[C@@H](C)[C@@]2(O)[C@@H](C=C(CO)C[C@]3(O)C(=O)C(C)=C[C@@H]23)[C@@H]2C(C)(C)[C@]12OC(C)=O`, the inhibition was -6.35% in experiment [1] and 19.6% in experiment [2].

Regarding `CC[C@@H](C(=O)[C@@H](C)[C@@H](O)[C@H](C)CCc1ccc(C)c(O)c1C(=O)O)[C@H]1O[C@](CC)([C@H]2CC[C@](O)(CC)[C@H](C)O2)C[C@@H]1C`, the results for the inhibition in experiment [1] and in experiment [2] were 10.5% and -1.88%, respectively.

On to `CCCCCCC(=O)CCCCCC/C=C/C[C@@H](O)[C@H](O)[C@@](N)(CO)C(=O)O`, for which the results for the inhibition in experiment [1] and in experiment [2] were 1.5% and -8.15%, respectively.

Regarding `CC[C@H](CC[C@@H](C)[C@H]1CC[C@H]2[C@@H]3CC=C4C[C@@H](O)CC[C@]4(C)[C@H]3CC[C@]12C)C(C)C`, the results for the inhibition in experiment [1] and in experiment [2] were -1.87% and 13.8%, respectively.

Take `O=C1c2ccccc2-n2c1nc1ccccc1c2=O`: the inhibition in experiment [1] was -2.13%; in experiment [2], 35.3%.

As to `CN1[C@@H]2CC[C@H]1C[C@H](O)C2`, the inhibition in experiment [1] was -9.24%; in experiment [2] it was 1.27%.

As to `COc1ccc(-c2cc(=O)c3c(O)cc(O[C@@H]4O[C@H](CO[C@@H]5O[C@@H](C)[C@H](O)[C@@H](O)[C@H]5O)[C@@H](O)[C@H](O)[C@H]4O)cc3o2)cc1O`, the results for the inhibition in experiment [1] and in experiment [2] were 7.92% and 9.59%, respectively.

On to `CN1[C@H]2C[C@H](OC(=O)[C@H](CO)c3ccccc3)C[C@@H]1[C@@H](O)C2`, for which the values for the inhibition in experiment [1] and in experiment [2] were 8.08% and 9.43%, respectively.

Take `COc1cc(=O)oc(/C=C/C=C/C=C/C(C)=C/[C@@]2(C)O[C@H](C)[C@](C)(O)[C@H]2O)c1C`: the inhibition in experiment [1] is 16.6%; in experiment [2], 27.1%.

Take `CO[C@H]1/C=C/O[C@@]2(C)Oc3c(C)c(O)c4c(O)c(cc(O)c4c3C2=O)NC(=O)/C(C)=C\C=C\[C@H](C)[C@H](O)[C@@H](C)[C@@H](O)[C@@H](C)[C@H](OC(C)=O)[C@@H]1C`: the inhibition was -3.13% in experiment [1] and -6.18% in experiment [2].

Take `COC(=O)[C@H]1[C@H]2C[C@H]3c4[nH]c5ccccc5c4CCN3C[C@@H]2CC[C@@H]1O`: the inhibition came to 6.02% in experiment [1] and 15.8% in experiment [2].

On to `CC1=C2C(=O)[C@H]3[C@@H](CC=C4C[C@@H](O)CC[C@@]43C)[C@@H]2CC[C@]12O[C@@H]1C[C@H](C)CN[C@H]1[C@H]2C`, for which the inhibition was 5.64% in experiment [1] and -9.1% in experiment [2].

Consider `COc1ccc2c(c1OC)C(=O)OC2C1c2c(cc3c(c2OC)OCO3)CCN1C` (racemic), for which the figures for the inhibition in experiment [1] and in experiment [2] were 3.34% and -5.54%, respectively.

As to `NC[C@H]1O[C@H](O[C@H]2[C@H](O)[C@@H](O[C@H]3O[C@H](CO)[C@@H](O)[C@H](N)[C@H]3O)[C@H](N)C[C@@H]2N)[C@H](O)[C@@H](O)[C@@H]1O`, the values for the inhibition in experiment [1] and in experiment [2] were -5.91% and 17.6%, respectively.

Consider `O=c1c(O)c(-c2ccc(O)cc2O)oc2cc(O)cc(O)c12`, for which the inhibition in experiment [1] is -3.98%; in experiment [2], 18.1%.

Turning to `COC1=C[C@@H]2[C@@H]3Cc4ccc(OC)c(O)c4[C@]2(CCN3C)CC1=O`, the values for the inhibition in experiment [1] and in experiment [2] were 5.14% and 4.63%, respectively.

For `COC1=C[C@@H](C)[C@@H]2C[C@H]3OC(=O)C[C@H]4C(C)=C(OC)C(=O)[C@H]([C@@]2(C)C1=O)[C@@]34C`, the figures for the inhibition in experiment [1] and in experiment [2] were 4.69% and 24.7%, respectively.

Consider `O=C(CCc1ccc(O)cc1)c1c(O)cc(O)cc1O[C@@H]1O[C@H](CO)[C@@H](O)[C@H](O)[C@H]1O`, for which the results for the inhibition in experiment [1] and in experiment [2] were 5.38% and -6.94%, respectively.

In the case of `COc1ccc(C[C@H](N)C(=O)N[C@H]2[C@@H](O)[C@H](n3cnc4c(N(C)C)ncnc43)O[C@@H]2CO)cc1`, the inhibition in experiment [1] is -9.98%; in experiment [2], -7.92%.

On to `C=C[C@H]1CN2CC[C@H]1C[C@@H]2[C@@H](O)c1ccnc2ccccc12`, for which the inhibition in experiment [1] worked out at 9.07%; in experiment [2], 5.94%.

As for `C[C@H]1CC[C@]2(NC1)O[C@H]1C[C@H]3[C@@H]4CC[C@H]5C[C@@H](O)CC[C@]5(C)[C@H]4CC[C@]3(C)[C@H]1[C@@H]2C`, the results for the inhibition in experiment [1] and in experiment [2] were 6.89% and 11.4%, respectively.

Take `OC[C@H]1O[C@@H](Oc2ccc(O)cc2)[C@H](O)[C@@H](O)[C@@H]1O`: the inhibition in experiment [1] turned out to be 6.63%; in experiment [2] it was 9.16%.

For `COc1cc([C@@H]2c3cc4c(cc3[C@H](O)[C@H]3COC(=O)[C@@H]23)OCO4)cc(OC)c1OC`, the values for the inhibition in experiment [1] and in experiment [2] were -2.7% and 27.1%, respectively.

Consider `CC(C)[C@@H]1NC(=O)[C@H](C)OC(=O)[C@@H](C(C)C)NC(=O)[C@@H](C(C)C)OC(=O)[C@H](C(C)C)NC(=O)[C@H](C)OC(=O)[C@@H](C(C)C)NC(=O)[C@@H](C(C)C)OC(=O)[C@H](C(C)C)NC(=O)[C@H](C)OC(=O)[C@@H](C(C)C)NC(=O)[C@@H](C(C)C)OC1=O`, for which the inhibition in experiment [1] is -1.5%; in experiment [2], 16.6%.

With `c1ccc2c(Cc3c[nH]c4ccccc34)c[nH]c2c1`, the results for the inhibition in experiment [1] and in experiment [2] were 21.7% and 4.61%, respectively.

In the case of `c1ccc2c(c1)[nH]c1cnccc12`, the inhibition in experiment [1] is 28.7%; in experiment [2], -1.66%.

As for `CC1(C)[C@@H](O)CC[C@]2(C)[C@H]3C(=O)C=C4[C@@H]5C[C@@](C)(C(=O)O)CC[C@]5(C)CC[C@@]4(C)[C@]3(C)CC[C@@H]12`, the inhibition in experiment [1] was 4.46%; in experiment [2] it was -3.12%.

As for `C=C1CC[C@@H]2[C@](C)(CO)[C@H](O)CC[C@@]2(C)[C@@H]1C/C=C1/C(=O)OC[C@H]1O`, the inhibition in experiment [1] was 8.56%; in experiment [2], 25.1%.

Consider `CN1C2CCCC1CC(=O)C2`, for which the inhibition came out at 1.42% in experiment [1] and 16.5% in experiment [2].

On to `CC[C@@H]1C(=O)OC[C@@H]1Cc1cncn1C`, for which the inhibition in experiment [1] was found to be 1.99%; in experiment [2] it was 20%.

For `O=C(/C=C/c1ccc(O)c(O)c1)O[C@H](Cc1ccc(O)c(O)c1)C(=O)O`, the inhibition in experiment [1] is -3.64%; in experiment [2], 14.9%.

Turning to `O=C1C=C2C(=CCOC2O)O1` (configuration not stated), the figures for the inhibition in experiment [1] and in experiment [2] were -1.78% and 5.33%, respectively.

Turning to `COC1=C(N)C(=O)c2nc(-c3nc(C(=O)O)c(C)c(-c4ccc(OC)c(OC)c4O)c3N)ccc2C1=O`, the inhibition in experiment [1] was -5.44%; in experiment [2], -2.66%.

As for `CO[C@@H]1C[C@@H](C[C@H]2CC[C@H](C)[C@H]([C@@H](C)C(=O)O)O2)O[C@]2(O[C@](C)([C@H]3CC[C@@](C)([C@@H]4O[C@@H]([C@H]5O[C@@](O)(CO)[C@H](C)C[C@@H]5C)C[C@@H]4C)O3)C[C@H]2C)[C@@H]1C`, the figures for the inhibition in experiment [1] and in experiment [2] were 4.98% and -7.25%, respectively.

Turning to `CN[C@@H]1[C@H](O)[C@H](NC)[C@H]2O[C@@]3(O)C(=O)C[C@@H](C)O[C@H]3O[C@@H]2[C@H]1O`, the inhibition in experiment [1] was -9.67%; in experiment [2], 15%.

Regarding `O=c1c(O)c(-c2cc(O)c(O)c(O)c2)oc2cc(O)ccc12`, the inhibition is -7.22% in experiment [1] and 15.7% in experiment [2].

Consider `C[C@@H]1O[C@@H](O[C@@H]2[C@@H](O)[C@H](O)[C@@H](CO)O[C@H]2c2c(O)cc(O)c3c(=O)cc(-c4ccc(O)cc4)oc23)[C@H](O)[C@H](O)[C@H]1O`, for which the results for the inhibition in experiment [1] and in experiment [2] were -3.3% and 25.9%, respectively.

`CC(C)=CC[C@@H](OC(=O)C=C(C)C)C1=CC(=O)c2c(O)ccc(O)c2C1=O`: the inhibition in experiment [1] was found to be 6.03%; in experiment [2], 22.8%.

Take `O=c1oc2cc(O)ccc2c2oc3cc(O)ccc3c12`: the inhibition turned out to be 9.06% in experiment [1] and 3.18% in experiment [2].

Take `Cc1cc2cc3c(C)cc(=O)oc3c(C)c2o1`: the inhibition was 2.42% in experiment [1] and 14.3% in experiment [2].

On to `CC1=CC(=O)c2ccccc2C1=O`, for which the inhibition is -1.75% in experiment [1] and 17.8% in experiment [2].

As for `COc1ccc(/C=C/c2cc(OC)cc(=O)o2)cc1`, the inhibition in experiment [1] was -1.55%; in experiment [2], 7.69%.

For the molecule `C=CCc1ccc(O)c(-c2ccc(O)c(CC=C)c2)c1`, the inhibition in experiment [1] was 7.62%; in experiment [2] it was -3.48%.

Regarding `COc1cc(C(=O)O[C@H]2C/C(C)=C/CC/C(C)=C/[C@H](O)[C@@H]2C(C)C)ccc1O`, the inhibition turned out to be 3.49% in experiment [1] and 23.6% in experiment [2].

Regarding `N[C@H](C(=O)O)[C@@H]1CC(Cl)=NO1`, the inhibition amounted to 8.62% in experiment [1] and 2.09% in experiment [2].

Consider `O=c1c(O)c(-c2ccccc2)oc2cc(O)cc(O)c12`, for which the inhibition in experiment [1] came out at 2.59%; in experiment [2], 6.98%.

Consider `COC1=CC(=O)C[C@@H](C)[C@]12Oc1c(Cl)c(OC)cc(OC)c1C2=O`, for which the inhibition in experiment [1] was -4.49%; in experiment [2], -8.73%.

For the molecule `CC(=O)OC[C@@]1(O)C[C@@]23CC[C@@H]4c5ccoc5C=C[C@@]4(C)[C@@H]2CC[C@@H]1C3`, the inhibition in experiment [1] stood at 1.7%; in experiment [2], 14.1%.

`C=C(C)[C@H]1Cc2c(ccc3c2O[C@@H]2COc4cc(OC)c(OC)cc4[C@@H]2C3=O)O1`: the inhibition in experiment [1] amounted to 6.43%; in experiment [2] it was 16.4%.

Take `CCCC(=O)O[C@@H]1[C@@H](C)[C@@]2(O)[C@@H](C=C(CO)C[C@]3(O)C(=O)C(C)=C[C@@H]23)[C@@H]2C(C)(C)[C@]12OC(=O)CCC` (stereo in doubt; form 2): the inhibition in experiment [1] worked out at 5.87%; in experiment [2] it was 19.5%.

`CN1CCC[C@H]1c1cccnc1`: the inhibition in experiment [1] was 1.2%; in experiment [2] it was 15.6%.

For `C[C@@]12CCc3occc3[C@H]1CC[C@@]13C[C@@H](CC[C@H]12)[C@@](O)(CO)C3`, the values for the inhibition in experiment [1] and in experiment [2] were 13.8% and -1.43%, respectively.

For `C[C@@H]1O[C@@H](OC[C@H]2O[C@@H](Oc3cc(O)c4c(=O)cc(-c5ccc(O)cc5)oc4c3)[C@H](O)[C@@H](O)[C@@H]2O)[C@H](O)[C@H](O)[C@H]1O`, the values for the inhibition in experiment [1] and in experiment [2] were -5.05% and 23%, respectively.

The record behind these values is ChEMBL document CHEMBL2163249, “Exploration of natural compounds as sources of new bifunctional scaffolds targeting cholinesterases and beta amyloid aggregation: the case of chelerythrine” (Bioorg Med Chem, 2012).
